Our source for the IC50 values is patent US11407721B2, “CIS-morpholinone and other compounds as MDM2 inhibitors for the treatment of cancer” (AMGEN INC., priority 2013, dated 2022).

Structures are written as SMILES. Like-named read-outs stand apart in the source and are kept apart here.

The test deals with interaction between HDM2 and p53 (GST-hMDM2 (1-188) / biotinylated-p53 (1-83)) (Homo sapiens (Human), UniProt Q00987). As to the kind of experiment: HTRF2 Assay (improved HTRF assay). Format: binding. As to conditions: read-out: HTRF2 IC50. A general note: In TR-FRET formats the signal depends on donor and acceptor labels being close together.
Sequence of interaction between HDM2 and p53 (GST-hMDM2 (1-188) / biotinylated-p53 (1-83)) (Q00987 1-188): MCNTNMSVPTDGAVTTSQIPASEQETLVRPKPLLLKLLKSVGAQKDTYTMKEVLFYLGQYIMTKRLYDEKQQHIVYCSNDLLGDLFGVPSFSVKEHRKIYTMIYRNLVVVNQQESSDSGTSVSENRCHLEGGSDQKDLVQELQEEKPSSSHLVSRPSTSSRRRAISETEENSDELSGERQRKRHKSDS
Setting [1] is: 0.2 nM GST-hMDM2 (1-188), 0.5 nM biotinylated-p53 (1-83), 100 mM KF.

The term IC50 denotes the concentration at which inhibition is half-maximal. Regarding `CCC[C@H](C(=O)O)N1C(=O)[C@H](CCN2CCOCC2)O[C@@H](c2ccc(Cl)cc2)[C@H]1c1ccc(Cl)cc1` [(2R)-2-((2S,3R,6S)-2,3-bis(4-chlorophenyl)-6-(2-(4-morpholinyl)ethyl)-5-oxo-4-morpholinyl)pentanoic acid], under setting [1], the IC50 is 1.49 µM. Turning to `O=C1[C@H](Cc2ccc(F)cc2)O[C@@H](c2ccc(Cl)cc2)[C@@H](c2ccc(Cl)cc2)N1c1ccnc(Cl)c1` (racemic) [Example 58, (2S,5R,6S)-5,6-Bis(4-chlorophenyl)-4-(2-chloropyridin-4-yl)-2-(4-fluorobenzyl)morpholin-3-one and (2R,5S,6R)-5,6-bis(4-chlorophenyl)-4-(2-chloropyridin-4-yl)-2-(4-fluorobenzyl)morpholin-3-one], the IC50 is 5 µM. Turning to `CCC[C@H](C(=O)O)N1C(=O)[C@H](Cc2ccccc2OC)O[C@@H](c2ccc(Cl)cc2)[C@H]1c1ccc(Cl)cc1` [(2R)-2-((2S,3R,6S)-2,3-bis(4-chlorophenyl)-6-(2-methoxybenzyl)-5-oxo-4-morpholinyl)pentanoic acid], the IC50 under setting [1] worked out at 0.496 µM.

With `CS(=O)(=O)c1ccc(C[C@@H]2O[C@@H](c3ccc(Cl)cc3)[C@@H](c3ccc(Cl)cc3)N(c3cccnc3)C2=O)c(F)c1` (mixture of isomers) [Example 63, (2S,5R,6S)-5,6-Bis(4-chlorophenyl)-2-(2-fluoro-4-(methylsulfonyl)benzyl)-4-(pyridin-3-yl)morpholin-3-one and (2R,5S,6R)-5,6-bis(4-chlorophenyl)-2-(2-fluoro-4-(methylsulfonyl)benzyl)-4-(pyridin-3-yl)morpholin-3-one], the IC50 was 20 µM. Take `CCC[C@H](C(=O)O)N1C(=O)[C@H](Cc2ccc(S(C)(=O)=O)cc2C#N)O[C@@H](c2ccc(Cl)cc2)[C@H]1c1ccc(Cl)cc1` [Example 55, (R)-2-((2S,3R,6S)-2,3-Bis(4-chlorophenyl)-6-(2-cyano-4-(methylsulfonyl)benzyl)-5-oxomorpholino)pentanoic acid]: under setting [1], the IC50 was found to be 0.179 µM.

As for `CCC[C@H](C(=O)O)N1C(=O)[C@H](Cc2ccc(S(C)(=O)=O)cc2)O[C@@H](c2ccc(Cl)cc2)[C@H]1c1ccc(Cl)cc1` [Example 54, (R)-2-((2S,3R,6S)-2,3-Bis(4-chlorophenyl)-6-(4-(methylsulfonyl)benzyl)-5-oxomorpholino)pentanoic acid], the IC50 under setting [1] was found to be 0.196 µM. The same measure, in the same setting: as for `CCC[C@H](CC(=O)O)N1C(=O)[C@H](Cc2ccc(F)cc2)O[C@@H](c2cccc(Cl)c2)[C@H]1c1ccc(Cl)cc1` [(3R)-3-((2S,3R,6S)-2-(3-chlorophenyl)-3-(4-chlorophenyl)-6-(4-fluorobenzyl)-5-oxo-4-morpholinyl)hexanoic acid], the figure is 3.66 µM; as for `CCC[C@H](C(=O)O)N1C(=O)[C@H](Cc2ccccc2)O[C@@H](c2ccc(Cl)cc2)[C@H]1c1ccc(Cl)cc1` [Example 44, (R)-2-((2S,5R,6S)-2-Benzyl-5,6-bis(4-chlorophenyl)-3-oxomorpholino)pentanoic acid], 0.757 µM.

As to `CCC[C@H](C(=O)O)N1C(=O)[C@H](CCCN2CCOCC2)O[C@@H](c2ccc(Cl)cc2)[C@H]1c1ccc(Cl)cc1` [Example 57, (R)-2-((2S,3R,6S)-2,3-Bis(4-chlorophenyl)-6-(3-morpholinopropyl)-5-oxomorpholino)pentanoic acid], under setting [1], the IC50 was 0.391 µM. Same read-out and setting: as for `CCC[C@H](C(=O)O)N1C(=O)[C@H](Cc2ccc(S(=O)(=O)C(F)(F)F)cc2)O[C@@H](c2ccc(Cl)cc2)[C@H]1c1ccc(Cl)cc1` [Example 56, (R)-2-((2S,3R,6S)-2,3-Bis(4-chlorophenyl)-5-oxo-6-(4-((trifluoromethyl)sulfonyl)benzyl)morpholino)pentanoic acid], the figure is 0.453 µM. Still for that read-out and setting: in the case of `CCC[C@H](CC(=O)O)N1C(=O)[C@@H](Cc2ccc(F)cc2)O[C@H](c2cccc(Cl)c2)[C@@H]1c1ccc(Cl)cc1` [(3R)-3-((2R,3S,6R)-2-(3-chlorophenyl)-3-(4-chlorophenyl)-6-(4-fluorobenzyl)-5-oxo-4-morpholinyl)hexanoic acid] it was 1.15 µM.
